Columns and labels:
Experiment in all cases: Single SABR-II co-incubation, TCR analogs
Assay type in all cases: cell-based, mouse
Conditions in all cases: Fig 4B
TCR 4 Analog 1 = test system: TCR 4 Analog 1
Source text: (§1) We hypothesized that computational grouping of TCR specificities may reveal closely related TCRs that potentially recognize the same epitope(s), similar to the reverse epitope discovery approach (Fig. 4a). In the absence of experimental antigen discovery, grouping of TCRs is not informative of reactivity; however, we hypothesized that TCRs that co-clustered with SABR-II de-convoluted TCRs bind to the same antigens. To test this, we used three TCR-similarity search algorithms: GLIPH2 (refs. [38],[69]), tcrdist3 (ref. [37]) and CoNGA[39]. All three algorithms take slightly different approaches to group TCR sequences and generate clusters of TCR sequences that share high sequence similarity. In addition, CoNGA considers the transcriptional similarities among T cell clones. Using CoNGA, we defined TCR clusters for two TCRs, TCR4 and TCR6B, and identified analogs that slightly differed in sequences. Moreover, for TCR30, we were able to identify six TCR analogs that co-clustered in CoNGA analysis as well as GLIPH2. For TCR11, we first identified a gene expression (GEX) cluster that had ~50 TCRs that clustered based on gene expression. Using tcrdist3, we calculated the relative distance of each of these TCRs from TCR11 and selected the top seven clonotypes for expression. Together, 16 TCRs were identified as analogs of the experimentally de-convoluted TCRs (Extended Data Fig. 8). These TCRs were cloned and expressed in Jurkat cells. We performed co-incubation assays using single SABR-IIs and observed that 5 of 16 TCRs recognized the same epitopes as the parental TCRs (Fig. 4b). As a result, we were able to identify the cognate epitopes of five additional TCRs from our dataset that had otherwise not been selected for SABR-II screening based on our clonal expansion cutoff.
(§2) Exported clonotypes were used as inputs for GLIPH2 (ref. [69]). For CoNGA, the merged dataset was exported as a .h5ad file and used as an input along with the CellRanger vdj output file. CoNGA analysis was performed using default parameters. Pairwise relative distances among TCRs were calculated using tcrdist3 (ref. [37]). CoNGA, tcrdist3 and GLIPH2 output files were searched manually for analogs that co-cluster with experimentally de-convoluted TCRs. Analogs were synthesized and cloned as described above.
(§3) For SABR library screens, 3 × 10^6 NFAT–GFP Jurkat cells expressing the SABR library were labeled with CellTrace Violet (BioLegend) according to the manufacturer’s protocol before incubation with 3 × 10^6 Jurkat cells expressing the TCR of interest. These mixtures were incubated in a six-well plate for 16–20 h. Cells were stained with anti-CD69-APC-Cy7 where indicated (BioLegend) and the top 1–2% of GFP^+CD69^+ cells were sorted for genomic DNA extraction, indexing and sequencing (see below). Multiplexed assays were scaled on a per-TCR basis (for example 3 × 10^6 for each of three TCRs against 9 × 10^6 library cells). For single SABR assays, unless otherwise defined, 5 × 10^5 SABR expressing NFAT–GFP Jurkat cells (or 5KC cells) were labeled with CellTrace Violet (BioLegend) according to the manufacturer’s protocol before incubation with 5 × 10^5 TCR-expressing Jurkat cells (or 5KC cells) in a round-bottom 96-well plate for 16–20 h. Cells were stained with anti-CD69-APC-Cy7 when indicated and acquired on the Attune NxT flow cytometer (Thermo Fisher Scientific). All flow analysis was performed using FlowJo (BD). For Daudi cell co-culture, 1 × 10^6 Jurkat cells expressing the TCR of interest were incubated with 1 × 10^6 Daudi cells expressing a SABR of interest for 3 days. On day 3, cells were labeled with anti-RT1B-PE and anti-Fas-APC-Cy7 before being acquired on the Attune NxT flow cytometer.

TCR 4 Analog 2 = test system: TCR 4 Analog 2
Source text: as §1, §2, §3

TCR 11 Analog 7 = test system: TCR 11 Analog 7
Source text: as §1, §2, §3

TCR 11 Analog 4 = test system: TCR 11 Analog 4
Source text: as §1, §2, §3

TCR 30 Analog 1 = test system: TCR 30 Analog 1
Source text: as §1, §2, §3

TCR 30 Analog 6 = test system: TCR 30 Analog 6
Source text: as §1, §2, §3

TCR 11 Analog 5 = test system: TCR 11 Analog 5
Source text: as §1, §2, §3

TCR 11 Analog 1 = test system: TCR 11 Analog 1
Source text: as §1, §2, §3

TCR 30 Analog 3 = test system: TCR 30 Analog 3
Source text: as §1, §2, §3

TCR 30 Analog 2 = test system: TCR 30 Analog 2
Source text: as §1, §2, §3

TCR 30 Analog 4 = test system: TCR 30 Analog 4
Source text: as §1, §2, §3

TCR 11 Analog 3 = test system: TCR 11 Analog 3
Source text: as §1, §2, §3

TCR 11 Analog 6 = test system: TCR 11 Analog 6
Source text: as §1, §2, §3

TCR 30 Analog 5 = test system: TCR 30 Analog 5
Source text: as §1, §2, §3

TCR 11 Analog 2 = test system: TCR 11 Analog 2
Source text: as §1, §2, §3

Q: What does the source list for LQTLALNAARDP?
A: %GFP+CD69+ cells of SABR-NFAT-GFP-Jurkat cells (TCR 4 Analog 1; technical replicate 1): 1.53%; %GFP+CD69+ cells of SABR-NFAT-GFP-Jurkat cells (TCR 4 Analog 1; technical replicate 2): 1.83%; %GFP+CD69+ cells of SABR-NFAT-GFP-Jurkat cells (TCR 4 Analog 2; technical replicate 1): 1%; %GFP+CD69+ cells of SABR-NFAT-GFP-Jurkat cells (TCR 4 Analog 2; technical replicate 2): 0.84%

Q: SHLVEALYLVCGERG was tested. Which “%GFP+CD69+ cells of SABR-NFAT-GFP-Jurkat cells” value (“%GFP+CD69+ cells” for short) (TCR 11 Analog 7; technical replicate 1) did it give?
A: The value was 0.78%.

Q: What about the “%GFP+CD69+ cells” value (TCR 11 Analog 7; technical replicate 2) of the same sequence?
A: The value was 1.05%.

Q: What about the “%GFP+CD69+ cells” value (TCR 11 Analog 4; technical replicate 1) of the same sequence?
A: The value was 0.89%.

Q: And the “%GFP+CD69+ cells” value (TCR 11 Analog 4; technical replicate 2)?
A: The value was 0.88%.

Q: What about the “%GFP+CD69+ cells” value (TCR 30 Analog 1; replicate 1) of the same sequence?
A: Its value is 3.25%.

Q: What about the “%GFP+CD69+ cells” value (TCR 30 Analog 1; replicate 2) of the same sequence?
A: Its value is 3.04%.

Q: And the “%GFP+CD69+ cells” value (TCR 30 Analog 1; replicate 3)?
A: The value was 3.1%.

Q: And the “%GFP+CD69+ cells” value (TCR 30 Analog 6; replicate 1)?
A: Its value is 1.04%.

Q: What about the “%GFP+CD69+ cells” value (TCR 30 Analog 6; replicate 2) of the same sequence?
A: Its value is 1.01%.

Q: What about the “%GFP+CD69+ cells” value (TCR 30 Analog 6; replicate 3) of the same sequence?
A: The value was 0.97%.

Q: What about the “%GFP+CD69+ cells” value (TCR 11 Analog 5; technical replicate 1) of the same sequence?
A: Its value is 20.3%.

Q: And the “%GFP+CD69+ cells” value (TCR 11 Analog 5; technical replicate 2)?
A: The value was 19.7%.

Q: What about the “%GFP+CD69+ cells” value (TCR 11 Analog 1; technical replicate 1) of the same sequence?
A: Its value is 0.66%.

Q: And the “%GFP+CD69+ cells” value (TCR 11 Analog 1; technical replicate 2)?
A: The value was 0.81%.

Q: And the “%GFP+CD69+ cells” value (TCR 30 Analog 3; replicate 1)?
A: The value was 1.16%.

Q: And the “%GFP+CD69+ cells” value (TCR 30 Analog 3; replicate 2)?
A: Its value is 1.27%.

Q: What about the “%GFP+CD69+ cells” value (TCR 30 Analog 3; replicate 3) of the same sequence?
A: Its value is 1.1%.

Q: What about the “%GFP+CD69+ cells” value (TCR 30 Analog 2; replicate 1) of the same sequence?
A: The value was 19.2%.

Q: And the “%GFP+CD69+ cells” value (TCR 30 Analog 2; replicate 2)?
A: Its value is 19%.

Q: And the “%GFP+CD69+ cells” value (TCR 30 Analog 2; replicate 3)?
A: Its value is 20%.

Q: What about the “%GFP+CD69+ cells” value (TCR 30 Analog 4; replicate 1) of the same sequence?
A: The value was 1.2%.

Q: What about the “%GFP+CD69+ cells” value (TCR 30 Analog 4; replicate 2) of the same sequence?
A: The value was 1.13%.

Q: And the “%GFP+CD69+ cells” value (TCR 30 Analog 4; replicate 3)?
A: The value was 1.05%.

Q: What about the “%GFP+CD69+ cells” value (TCR 11 Analog 3; technical replicate 1) of the same sequence?
A: Its value is 0.85%.

Q: And the “%GFP+CD69+ cells” value (TCR 11 Analog 3; technical replicate 2)?
A: The value was 1.04%.

Q: And the “%GFP+CD69+ cells” value (TCR 11 Analog 6; technical replicate 1)?
A: Its value is 1%.

Q: What about the “%GFP+CD69+ cells” value (TCR 11 Analog 6; technical replicate 2) of the same sequence?
A: Its value is 1.08%.

Q: And the “%GFP+CD69+ cells” value (TCR 30 Analog 5; replicate 1)?
A: The value was 34.3%.

Q: What about the “%GFP+CD69+ cells” value (TCR 30 Analog 5; replicate 2) of the same sequence?
A: Its value is 35.1%.

Q: What about the “%GFP+CD69+ cells” value (TCR 30 Analog 5; replicate 3) of the same sequence?
A: The value was 34.2%.

Q: What about the “%GFP+CD69+ cells” value (TCR 11 Analog 2; technical replicate 1) of the same sequence?
A: The value was 17.2%.

Q: And the “%GFP+CD69+ cells” value (TCR 11 Analog 2; technical replicate 2)?
A: Its value is 16.8%.

From paper PMC11093748, “De novo identification of CD4^+ T cell epitopes” (Nature Methods, 2024)
